“And” between values parts separate entries of the source, which are not always exact repeats. Equal values may be shown once. Read-outs that look alike come from different tables or passages of the source.
How the values were obtained:
[1] = system: stabilized human keratinocytes (HaCaT cells); test: Cytotoxicity evaluation with MTT method (UNI EN ISO 10993-5 rule); assay type: cell-based
Protocol: The test consisted in evaluating the cytotoxicity of the moisturizing cream […] aimed to be used on skin or on mucosae following the UNI EN ISO 10993-5 rule concerning the biological evaluation of medical devices. The cytotoxicity test was carried out towards the keratinocyte, the main cell component of skin and mucosae. […] The method is based on the fact that the mitochondrial dehydrogenases of viable cells are able to cleave the tetrazolium ring of MTT, leading to the formation of purple formazane crystals, which are insoluble in water. The crystals are dissolved in acidified isopropanol and the resulting purple solution is measured spectrophotometrically. An increase or decrease in viable cell number results in a concomitant change in the amount of formazan which is forming and can be considered as an indication of the degree of cytotoxicity caused by the exposure to the tested substances. The cell model employed for the in vitro test consisted of stabilized human keratinocytes (HaCaT cells). Cells were cultured in 24-well plates for 24 hours in DMEM + 10% FCS. Fresh culture medium was then added, supplemented with 10% FCS and containing a sample of the product to be tested so as to reach 6 final dilutions ranging from 5 to 0.15 mg/ml. For each sample of the cream […], three replica were performed. Untreated cells were used as negative control, and as positive control cells were treated with a surfactant with known toxicity, i.e. Sodium Lauryl Sulphate briefly referred to as SLS, dissolved in the culture medium in concentrations ranging from 0.5 mg/ml to 0.03 mg/ml. Specifically, samples with SLS amounts equal to 0.5, 0.25, 0.12, 0.06 and 0.03 mg/ml and […] amounts of 5, 2.5, 1.25, 0.6, 0.3, 0.15 mg/ml were prepared. At the end of treatment, the citotoxicity test (MTT) was carried out. The cells were then washed with washing solution (Dulbecco's Phosphate Buffered Saline). After removal of the solution, the MTT-culture medium was added to each well and the cells were incubated at 37°C. At the end of the incubation period, the MTT-culture medium was removed and a MTT solubilizing solution was added to each well. The plate was then stirred on a plate stirrer, while ensuring that all the crystals were dissolved and had formed a homogeneous solution. The absorbance was then read with a chromatometer equipped with a plate reader, by subtracting background reading. The result was expressed as: % cell survival = (OD treated cells × 100)/(OD untreated cells) [formula] […]

CD80 (B7.1) = conditions: for CD80 (MFI*): THP-1, 48 hours, corrected by the negative control
Protocol: (§1) The test consisted in evaluating the pro-sensitising stimulus on human monocytes. It was deemed appropriate to use a cell model to evaluate the immunological reactivity of typical immunological cells (monocytes in this case) exposed for a prolonged time (48h) to the tested product in two different concentrations
(§2) The test was thus performed on a monocytes cell line named THP-1, as such a cell type is highly involved in the immunological responses of skin, which is the target organ of the tested cream. […] Nickel is in fact able to trigger in vivo allergising-type immunological reactions (contact sensitising).
(§3) The technique is based on the fact that the recognition of the antigen by the TCR (T Cell Receptor) of T lymphocytes (signal 1) is not functional to the maturation of an effective immune response, if it doesn't occur at the membrane of an antigen-presenting cell able to provide an additional signal (signal 2 or costimulus) qualitatively necessary for the definition of the response type (humoral, cellular, etc). Both B7.1 and B7.2 (collectively: B7) are membrane glycoproteins which are present on the surface of several antigen-presenting cells (dendritic cells, Langerhans cells, monocytes/macrophages, other cell lines such as keratinocytes) and serve as costimula. In fact, both these molecules are ligands of a glycoprotein named CD28, which are present on the T lymphocyte membrane. The triggering of the ligand/receptor system CD28B7 avoids the T cell apoptosis (i.e. the programmed cell death) and cooperates to sustain their proliferation and differentiation. In the first steps of the "physiological" immune response, B7.2 is expressed constitutively and modulates both the Th1 and Th2 responses.
(§4) An increase in expression of these co-stimulatory molecules on monocytes is thus a signal of activation of an immune response the exposure in consequence of a potentially allergising antigen. Functionally, in fact, the expression of co-stimulatory molecules on this cell type corresponds to the competence acquisition for expressing the antigen in the typical location (skin in this case) in which a contact sensitization occurs in vivo.
(§5) They were subjected to a preliminary cytotoxicity screening on THP-1 cells to determinate the concentration at which the substance could be used in vitro without causing cell death, event which causes false results.
(§6) Cell growth culture medium exposed to the same experimental conditions was used as a negative control. […]
(§7) After exposure, the cells were examined for their viability by staining with Trypan Blue dye and by observing under microscope in a corpuscle-counter chamber, collected, washed in a isotonic buffer (PBS) and then marked with a fluoresceinated anti-B7.1 or B7.2 antibody. After further washings to remove the excess antibody, the cells were feeded in a flux cytofluorimeter (FACS, Fluorescence Activated Cell Sorter, Becton Dickinson, Mountain View, CA) for the MFI (Mean Fluorescence Intensity) evaluation, which was proportional to the number of molecules marked per cell and therefore representative of the expression level of the tested co-stimulatory molecules.
(§8) As control (basal fluorescence), the MFI of both untreated THP-1 cells (apart from washings in PBS) and THP-1 cells reacted with a fluoresceinated monoclonal antibody (such as the anti-B7.1 and anti-B7.2), but of irrelevant specificity (isotype-matched control) was evaluated.

CD86 (B7.2) = conditions: THP-1, 48 hours, corrected by the negative control
Protocol: as §1, §2, §3, §4, §5, §6, §7, §8

[2] = in contact with healthy and intact skin; cited from earlier work

| SMILES | Cell viability % (vs negative control) ([1]; Dose 0.03 mg/ml, MTT, Sulphate) | Cell viability % (vs negative control) ([1]; Dose 0.06 mg/ml, MTT, Sulphate) | Cell viability % (vs negative control) ([1]; Dose 0.12 mg/ml, MTT, Sulphate) | Cell viability % (vs negative control) ([1]; Dose 0.25 mg/ml, MTT, Sulphate) | Cell viability % (vs negative control) ([1]; Dose 0.5 mg/ml, MTT, Sulphate) | IC50 ([1]; Homo sapiens, read-out: concentration of 50% inhibition of cell growth (IC50), HaCaT, MTT, theoretical value from regression curve of dose-response) [µg/mL] | concentration of 50% inhibition of cell growth (IC50) ([1]; MTT, theoretical value from regression curve of dose-response, Sulphate) | increase in CD80, with respect to untreated controls (CD80 (B7.1); 4 µg/ml, data not shown) | CD80 (MFI*) (CD80 (B7.1); 10 µg/ml) | CD80 (MFI*) (CD80 (B7.1); 20 µg/ml) | CD86 (MFI*) (CD86 (B7.2); 10 µg/ml) | CD86 (MFI*) (CD86 (B7.2); 20 µg/ml) | concentration able to cause an allergic reaction in most of the sensitive subjects [2] |
| --- | --- | --- | --- | --- | --- | --- | --- | --- | --- | --- | --- | --- | --- |
| CCCCCCCCCCCCOS(=O)(=O)[O-].[Na+] [SLS, Sodium Lauryl Sulphate] | 87.6% and 94.7% and 98.5% and 92.7% | 61.0% and 79.6% and 76.7% and 73.9% | 2.5% and 3.9% and 0.2% and 1.9% | 2.3% and 2.9% and 0.1% and 1.5% | 2.3% and 2.2% and 0.2% and 1.2% | 60 | 0.07 mg/mL and 0.067 mg/mL |  |  |  |  |  |  |
| O.O.O.O.O.O.O=S(=O)([O-])[O-].[Ni+2] [Nickel sulphate, Nickel Sulphate (NiSO46H2O)] |  |  |  |  |  |  |  | detectable increase | 19.85 and 18.33 | 29.00 and 33.48 | 37.35 and 33.26 | 77.12 and 87.92 | above 100 ppm |

From patent EP1920756A1, “Cosmetic matrix for a preservative-free cosmetic formulation” (SYRIO PHARMA S.P.A., priority 2006, dated 2008)
